# Experiments:
# [1] = biological target: T1, CDK2 (Homo sapiens, UniProt P24941); assay: NanoBiT assay (CDK2 degradation); type: cell-based; conditions: 24 hours; for Dmax: HEK293, HEK293 clonal line with CRISPR KI HiBiT tag on CDK2, Endurazine live cell substrate
# T1 construct: HEK293 clonal lines with CRISPR KI HiBiT tag on CDK2 proteins; host or cells: HEK293 clonal line, CRISPR knock-in HiBiT-CDK2, stably expressing LgBiT
# Method: HEK293 clonal lines with CRISPR KI HiBiT tag on either CDK2 proteins and stably expressing LgBiT protein were obtained from Promega (Madison, WI). Cells were plated at 5000 cells per well using Multiflo (BioTek) in 384-well white solid bottom plates (Corning, 3570BC) in 25 ul volume in DMEM media (DMEM, high glucose, HEPES, no phenol red (ThermoFisher Scientific, 21063029)) containing 10% FBS (Corning, 35-075-CV), 1% Penicillin/Streptomycin ((ThermoFisher Scientific, 15140-122), and 1% Endurazine (Nano-Glo Endurazine Live Cell Substrate (Promega, N2571)). Cells were incubated for 16 hours at 37 C, 5% CO2. 75 nL of a compound at 30 μM were dosed into the plate using an Echo® 650 liquid handler (Labcyte). Cells were incubated at 37° C., 5% CO2 for 24 hours and then signal was read on a Pherastar FSX using “LUM plus” optic module.
# Analysis was performed in Scinamic (Scinamic, Cambridge, MA). Luminescence response (R) was calculated by the formula: response=100*(S−N)/(P−N) where S is the signal of the well, N and P the mean negative and positive control values respectively of the same plate. The luminescence response was then fitted in Scinamic using a 3-parameter agonist logistic fit (hillslope=1, EC50>0, top/bottom unconstrained).
# [2] = biological target: CRBN-DDB1 (Homo sapiens, UniProt Q96SW2); assay: Compound binding to CRBN by HTRF assay; conditions: CRBN-DDB1 2.5 nM, Cy5-Thalidomide 100 nM, 30 min; Ki from geometric mean IC50 by Cheng-Prustoff transformation
# Method: Compound activity was monitored in a Homogenous Time-Resolved Fluorescence (HTRF) assay using 1-[5-({2-[2-(2-{[2-(2,6-dioxopiperidin-3-yl)-1,3-dioxo-2,3-dihydro-1H-isoindol-4-yl]oxy}acetamido)ethoxy]ethyl}carbamoyl)pentyl]-3,3-dimethyl-2-[(1E,3E)-5-[(2E)-1,3,3-trimethyl-5-sulfo-2,3-dihydro-1H-indol-2-ylidene]penta-1,3-dien-1-yl]-3H-indol-1-ium-5-sulfonate as a fluorescent probe. Biochemical assays were conducted in Greiner white 384 well HiBase plates (Cat. No 784075-25) in 10 μL total volume. A one pot detection solution of CRBN-DDB1 (2.5 nM), Anti-His Terbium Cryptate Gold (1×, PerkinElmer Cat. #: 61HI2TLB), and Cy5-Thalidomide (100 nM, Tenova Cat.: T52461) was prepared in 20 mM HEPES, 20 mM NaCl, 0.2 mM TCEP, 0.2 mM EDTA, and 0.005% Tween20 was dispensed to each assay plate. Compounds were stored in dry, ambient temperatures at 10 mM. A 10-point, 1:3 dilution series was prepared from 10 mM stock concentrations in Echo-compatible LDV plates. 10 nL of each compound dilution series was dispensed into assays wells using an Echo 650 (Labcyte inc. USA). 10 nL of 10 mM Lenalidomide was transferred into the active-control wells for the assay and 10 nL of DMSO was transferred into the neutral-control wells. The assay was then allowed to incubate for 30 min at ambient temperature after transferring compound. Plate measurements were taken on a Pherastar FSX (BMG Labtech, Germany) using the HTRF Red filter (Ex. 337 nm, em1: 620 nm, em2: 665 nm) (Flashes: 50, Integration time: 60-400 us, Z-height: 10 mm, Ratio-multiplier: 10,000). The HTRF signal was then subsequently normalized to the neutral and active controls. Analysis and IC50 values were derived using KNIME analytics (KNIME Zurich) transformation and fitting within Collaborative Drug Discovery (Collaborative Drug Discovery USA). Ki was derived from the geometric mean of the IC50 values using the Cheng-Prustoff transformation.
# CRBN-DDB1, sequence (Q96SW2 whole entry): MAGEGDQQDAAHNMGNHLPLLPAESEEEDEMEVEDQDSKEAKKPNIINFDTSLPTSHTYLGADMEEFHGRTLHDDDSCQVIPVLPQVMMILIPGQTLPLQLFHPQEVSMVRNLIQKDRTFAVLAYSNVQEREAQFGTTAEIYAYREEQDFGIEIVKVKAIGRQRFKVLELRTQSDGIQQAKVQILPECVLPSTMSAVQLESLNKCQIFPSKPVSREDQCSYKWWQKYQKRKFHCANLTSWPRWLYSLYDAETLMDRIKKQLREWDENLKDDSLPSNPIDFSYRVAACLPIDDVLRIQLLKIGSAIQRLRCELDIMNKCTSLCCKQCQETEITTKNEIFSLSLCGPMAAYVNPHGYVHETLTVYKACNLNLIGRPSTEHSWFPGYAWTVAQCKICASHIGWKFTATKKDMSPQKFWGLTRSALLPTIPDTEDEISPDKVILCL
# CRBN-DDB1, sequence (Q16531 whole entry partner): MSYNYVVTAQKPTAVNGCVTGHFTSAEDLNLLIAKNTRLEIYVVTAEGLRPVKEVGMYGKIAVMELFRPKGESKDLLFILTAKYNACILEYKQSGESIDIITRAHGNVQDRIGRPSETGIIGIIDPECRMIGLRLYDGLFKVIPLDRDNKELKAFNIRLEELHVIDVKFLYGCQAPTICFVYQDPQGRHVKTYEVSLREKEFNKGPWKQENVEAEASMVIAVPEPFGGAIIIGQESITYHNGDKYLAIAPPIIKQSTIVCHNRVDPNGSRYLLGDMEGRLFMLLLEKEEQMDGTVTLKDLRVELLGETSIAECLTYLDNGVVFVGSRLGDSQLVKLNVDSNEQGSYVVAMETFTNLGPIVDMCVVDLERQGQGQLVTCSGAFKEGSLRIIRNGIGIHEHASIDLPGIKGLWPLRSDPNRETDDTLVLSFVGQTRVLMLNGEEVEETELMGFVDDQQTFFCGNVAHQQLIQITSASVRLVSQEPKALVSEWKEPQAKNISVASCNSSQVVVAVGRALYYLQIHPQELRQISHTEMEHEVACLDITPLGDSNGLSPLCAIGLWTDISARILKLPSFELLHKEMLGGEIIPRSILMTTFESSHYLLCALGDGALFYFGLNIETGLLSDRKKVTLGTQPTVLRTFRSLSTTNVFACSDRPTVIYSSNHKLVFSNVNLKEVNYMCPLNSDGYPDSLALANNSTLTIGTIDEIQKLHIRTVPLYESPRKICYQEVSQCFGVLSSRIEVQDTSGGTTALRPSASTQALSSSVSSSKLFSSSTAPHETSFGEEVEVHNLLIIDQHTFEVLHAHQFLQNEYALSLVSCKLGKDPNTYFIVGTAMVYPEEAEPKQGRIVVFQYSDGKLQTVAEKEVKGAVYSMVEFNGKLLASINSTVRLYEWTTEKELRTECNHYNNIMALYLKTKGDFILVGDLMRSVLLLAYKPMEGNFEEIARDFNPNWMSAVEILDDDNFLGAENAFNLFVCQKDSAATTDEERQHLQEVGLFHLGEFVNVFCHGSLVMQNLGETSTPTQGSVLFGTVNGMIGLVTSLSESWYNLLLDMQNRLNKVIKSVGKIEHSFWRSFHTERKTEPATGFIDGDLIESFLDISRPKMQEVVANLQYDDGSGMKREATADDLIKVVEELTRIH
SMILES,Dmax [1],Ki [2],"CDK2 NanoBiT Dmax (%) ([1]; HEK293 clonal line with CRISPR KI HiBiT tag on CDK2, Endurazine live cell substrate)"
"O=C1CCC(N2Cc3ccc(CNC(=O)OCC4(CC5CC5)CC4)cc3C2=O)C(=O)N1 (stereo not drawn) [Compound 80, [1-(cyclopropylmethyl)cyclopropyl]methyl N-{[2-(2,6-dioxopiperidin-3-yl)-3-oxo-2,3-dihydro-1H-isoindol-5-yl]methyl}carbamate]",≤ 10%,100 to 1000 nM,
"CC1(C)[C@H]2CC=C(CCOC(=O)NCc3ccc4c(c3)C(=O)N(C3CCC(=O)NC3=O)C4)[C@@H]1C2 (stereo partly drawn) [Compound 129, 2-((1R,5S)-6,6-dimethylbicyclo[3.1.1]hept-2-en-2-yl)ethyl ((2-(2,6-dioxopiperidin-3-yl)-3-oxoisoindolin-5-yl)methyl)carbamate]",10 to 50%,100 to 1000 nM,
"CS(=O)(=O)N1CC(COC(=O)NCc2ccc3c(c2)C(=O)N(C2CCC(=O)NC2=O)C3)C1 (stereo not drawn) [Compound 91, (1-methanesulfonylazetidin-3-yl)methyl N-{[2-(2,6-dioxopiperidin-3-yl)-3-oxo-2,3-dihydro-1H-isoindol-5-yl]methyl}carbamate]",≤ 10%,100 to 1000 nM,
"O=C1CCC(N2Cc3ccc(CNC(=O)OC(C4CC4)C4CC5(CCC5)C4)cc3C2=O)C(=O)N1 (stereo not drawn) [Compound 108, cyclopropyl(spiro[3.3]heptan-2-yl)methyl ((2-(2,6-dioxopiperidin-3-yl)-3-oxoisoindolin-5-yl)methyl)carbamate]",10 to 50%,100 to 1000 nM,
C[C@H]1C[C@H](COC(=O)NCc2ccc3c(c2)C(=O)N(C2CCC(=O)NC2=O)C3)C1 (stereo partly drawn) [Compound 119],10 to 50%,100 to 1000 nM,
"O=C1CCC(N2Cc3c(cc(CNc4nnc(C5CC6(CCC6)C5)o4)cc3C(F)(F)F)C2=O)C(=O)N1 (stereo not drawn) [Compound 145, 3-(1-oxo-6-(((5-(spiro[3.3]heptan-2-yl)-1,3,4-oxadiazol-2-yl)amino)methyl)-4-(trifluoromethyl)isoindolin-2-yl)piperidine-2,6-dione]",,100 to 1000 nM,B (B represents a Dmax value of >10% and ≤50%)
"O=C1CCC(N2Cc3ccc(CNC(=O)OCC4CC5(CC5)C4)cc3C2=O)C(=O)N1 (stereo not drawn) [Compound 126, spiro[2.3]hexan-5-ylmethyl ((2-(2,6-dioxopiperidin-3-yl)-3-oxoisoindolin-5-yl)methyl)carbamate]",10 to 50%,100 to 1000 nM,
"N#Cc1cc(CNC(=O)OCC2CC3(CCC3)C2)cc2c1CN(C1CCC(=O)NC1=O)C2=O (stereo not drawn) [Compound 106, spiro[3.3]heptan-2-ylmethyl ((7-cyano-2-(2,6-dioxopiperidin-3-yl)-3-oxoisoindolin-5-yl)methyl)carbamate]",50 to 80%,100 to 1000 nM,

# Second part, led by results:
Dmax [1],Ki [2],SMILES,"CDK2 NanoBiT Dmax (%) ([1]; HEK293 clonal line with CRISPR KI HiBiT tag on CDK2, Endurazine live cell substrate)"
10 to 50%,100 to 1000 nM,"CCC1(CCCOC(=O)NCc2ccc3c(c2)C(=O)N(C2CCC(=O)NC2=O)C3)CC1 (stereo not drawn) [Compound 101, 3-(1-ethylcyclopropyl)propyl ((2-(2,6-dioxopiperidin-3-yl)-3-oxoisoindolin-5-yl)methyl)carbamate]",
10 to 50%,100 to 1000 nM,"O=C1CCC(N2Cc3ccc(CNC(=O)OCC4(C5CC5)CC4)cc3C2=O)C(=O)N1 (stereo not drawn) [Compound 77, {[1,1′-bi(cyclopropane)]-1-yl}methyl N-{[2-(2,6-dioxopiperidin-3-yl)-3-oxo-2,3-dihydro-1H-isoindol-5-yl]methyl}carbamate]",
10 to 50%,100 to 1000 nM,"O=C1CCC(N2Cc3ccc(CNC(=O)OCC4CC5(C4)CC(F)(F)C5)cc3C2=O)C(=O)N1 (stereo not drawn) [Compound 125, (6,6-difluorospiro[3.3]heptan-2-yl)methyl ((2-(2,6-dioxopiperidin-3-yl)-3-oxoisoindolin-5-yl)methyl)carbamate]",
≤ 10%,≤ 100 nM,"O=C1CCC(N2Cc3ccc(CNC(=O)OCC4CCS(=O)(=O)C4)cc3C2=O)C(=O)N1 (stereo not drawn) [Compound 51, (1,1-dioxo-1lambda6-thiolan-3-yl)methyl N-{[2-(2,6-dioxopiperidin-3-yl)-3-oxo-2,3-dihydro-1H-isoindol-5-yl]methyl}carbamate]",
